Test results: ChEMBL document CHEMBL5518224, “Rational Design of PARP1/c-Met Dual Inhibitors for Overcoming PARP1 Inhibitor Resistance Induced by c-Met Overexpression” (J Med Chem, 2024)
Active and inactive are the calls of the source. No cut-off for these calls is given here.

What was measured:
[1] = target: Hepatocyte growth factor receptor (Homo sapiens, UniProt P08581); assay: Inhibition of c-Met (unknown origin)
[2] = tested on: MDA-MB-231; assay: Induction of apoptosis in human MDA-MB-231 cells assessed as late apoptotic cells at 0.5 uM incubated for 4 days in presence of olaparib at 1 uM by Annexin V-FITC/PI staining based flow cytometry analysis (reference value: 0.81%); format: functional; settings: time 4 day
[3] = tested on: MDA-MB-231; assay: Antitumor activity against human MDA-MB-231 cells xenografted in female Balb/c nude mouse assessed as tumor growth inhibition at 25 mg/kg/day, po qd administered for 28 days relative to control; format: functional; settings: MDA-MB-231, 672 h, time 28 day, read-out: TGI
[4] = tested on: MDA-MB-231; assay: Induction of apoptosis in human MDA-MB-231 cells assessed as late apoptotic cells at 0.5 uM incubated for 4 days by Annexin V-FITC/PI staining based flow cytometry analysis (reference value: 0.81%); format: functional; settings: time 4 day
[5] = tested on: Olaparib-resistant HCT116; assay: Antitumor activity against human Olaparib-resistant HCT116 cells xenografted in female Balb/c nude mouse assessed as tumor growth inhibition at 25 mg/kg/day, po qd administered for 21 days in presence of olaparib at 50 mg/kg/day, ip qd relative to control; format: functional; settings: Olaparib-resistant HCT116, 504 h, time 21 day, read-out: TGI
[6] = tested on: MDA-MB-231; assay: Antitumor activity against human MDA-MB-231 cells xenografted in female Balb/c nude mouse assessed as tumor growth inhibition at 25 mg/kg/day, po qd administered for 28 days in presence of olaparib 50 mg/kg, ip qd relative to control; format: functional; settings: MDA-MB-231, 672 h, time 28 day, read-out: TGI
[7] = tested on: MDA-MB-231; assay: Induction of apoptosis in human MDA-MB-231 cells assessed as early apoptotic cells at 0.5 uM incubated for 4 days in presence of olaparib at 1 uM by Annexin V-FITC/PI staining based flow cytometry analysis (reference value: 3.88%); format: functional; settings: time 4 day
[8] = tested on: MDA-MB-468; assay: Antiproliferative activity against human MDA-MB-468 cells harboring wild type BRCA1/2, HR-proficient and non-c-Met amplification assessed as inhibition of cell growth incubated for 7 days by MTT assay; format: functional, cell-based; settings: MDA-MB-468, 168 h
[9] = Antiproliferative activity against human Olaparib-resistant HCC1937 cells harboring BRCA1 mutant and PARP1 overexpression assessed as inhibition of cell growth incubated for 7 days by MTT assay; format: functional, cell-based; settings: Olaparib-resistant HCC1937, 168 h
[10] = tested on: MDA-MB-231; assay: Antiproliferative activity against human MDA-MB-231 cells harboring wild type BRCA and c-Met amplification assessed as inhibition of cell growth incubated for 7 days by MTT assay; format: functional, cell-based; settings: MDA-MB-231, 168 h
[11] = tested on: MDA-MB-231; assay: Antitumor activity against human MDA-MB-231 cells xenografted in female Balb/c nude mouse assessed as reduction in tumor weight at 25 mg/kg/day, po qd administered for 28 days; format: functional, organism-based; settings: time 28.0 day
[12] = tested on: MDA-MB-231; assay: Antitumor activity against human MDA-MB-231 cells xenografted in female Balb/c nude mouse assessed as reduction in tumor weight at 25 mg/kg/day, po qd administered for 28 days in presence of olaparib 50 mg/kg, ip qd; format: functional, organism-based; settings: time 28.0 day
[13] = tested on: MDA-MB-231; assay: Induction of apoptosis in human MDA-MB-231 cells assessed as dead cells at 0.5 uM incubated for 4 days by Annexin V-FITC/PI staining based flow cytometry analysis (reference value: 0.72%); format: functional; settings: time 4 day
[14] = tested on: MDA-MB-231; assay: Induction of apoptosis in human MDA-MB-231 cells assessed as early apoptotic cells at 0.5 uM incubated for 4 days by Annexin V-FITC/PI staining based flow cytometry analysis (reference value: 3.88%); format: functional; settings: time 4 day
[15] = tested on: MDA-MB-231; assay: Induction of apoptosis in human MDA-MB-231 cells assessed as dead cells at 0.5 uM incubated for 4 days in presence of olaparib at 1 uM by Annexin V-FITC/PI staining based flow cytometry analysis (reference value: 0.72%); format: functional; settings: time 4 day
[16] = tested on: MDA-MB-231; assay: Induction of apoptosis in human MDA-MB-231 cells assessed as live cells at 0.5 uM incubated for 4 days by Annexin V-FITC/PI staining based flow cytometry analysis (reference value: 94.6%); format: functional; settings: time 4 day
[17] = tested on: Olaparib-resistant HCT116; assay: Antiproliferative activity against human Olaparib-resistant HCT116 cells harboring BRCA2 mutant assessed as inhibition of cell growth incubated for 7 days by MTT assay; format: functional, cell-based; settings: Olaparib-resistant HCT116, 168 h
[18] = tested on: Olaparib-resistant HCT116; assay: Antitumor activity against human Olaparib-resistant HCT116 cells xenografted in female Balb/c nude mouse assessed as reduction in tumor weight at 25 mg/kg/day, po qd administered for 21 days; format: functional, organism-based; settings: time 21.0 day
[19] = tested on: Olaparib-resistant HCT116; assay: Antitumor activity against human Olaparib-resistant HCT116 cells xenografted in female Balb/c nude mouse assessed as tumor growth inhibition at 25 mg/kg/day, po qd administered for 21 days relative to control; format: functional; settings: Olaparib-resistant HCT116, 504 h, time 21 day, read-out: TGI
[20] = tested on: MDA-MB-231; assay: Induction of apoptosis in human MDA-MB-231 cells assessed as live cells at 0.5 uM incubated for 4 days in presence of olaparib at 1 uM by Annexin V-FITC/PI staining based flow cytometry analysis (reference value: 94.6%); format: functional; settings: time 4 day

Chain of Hepatocyte growth factor receptor (P08581 whole entry): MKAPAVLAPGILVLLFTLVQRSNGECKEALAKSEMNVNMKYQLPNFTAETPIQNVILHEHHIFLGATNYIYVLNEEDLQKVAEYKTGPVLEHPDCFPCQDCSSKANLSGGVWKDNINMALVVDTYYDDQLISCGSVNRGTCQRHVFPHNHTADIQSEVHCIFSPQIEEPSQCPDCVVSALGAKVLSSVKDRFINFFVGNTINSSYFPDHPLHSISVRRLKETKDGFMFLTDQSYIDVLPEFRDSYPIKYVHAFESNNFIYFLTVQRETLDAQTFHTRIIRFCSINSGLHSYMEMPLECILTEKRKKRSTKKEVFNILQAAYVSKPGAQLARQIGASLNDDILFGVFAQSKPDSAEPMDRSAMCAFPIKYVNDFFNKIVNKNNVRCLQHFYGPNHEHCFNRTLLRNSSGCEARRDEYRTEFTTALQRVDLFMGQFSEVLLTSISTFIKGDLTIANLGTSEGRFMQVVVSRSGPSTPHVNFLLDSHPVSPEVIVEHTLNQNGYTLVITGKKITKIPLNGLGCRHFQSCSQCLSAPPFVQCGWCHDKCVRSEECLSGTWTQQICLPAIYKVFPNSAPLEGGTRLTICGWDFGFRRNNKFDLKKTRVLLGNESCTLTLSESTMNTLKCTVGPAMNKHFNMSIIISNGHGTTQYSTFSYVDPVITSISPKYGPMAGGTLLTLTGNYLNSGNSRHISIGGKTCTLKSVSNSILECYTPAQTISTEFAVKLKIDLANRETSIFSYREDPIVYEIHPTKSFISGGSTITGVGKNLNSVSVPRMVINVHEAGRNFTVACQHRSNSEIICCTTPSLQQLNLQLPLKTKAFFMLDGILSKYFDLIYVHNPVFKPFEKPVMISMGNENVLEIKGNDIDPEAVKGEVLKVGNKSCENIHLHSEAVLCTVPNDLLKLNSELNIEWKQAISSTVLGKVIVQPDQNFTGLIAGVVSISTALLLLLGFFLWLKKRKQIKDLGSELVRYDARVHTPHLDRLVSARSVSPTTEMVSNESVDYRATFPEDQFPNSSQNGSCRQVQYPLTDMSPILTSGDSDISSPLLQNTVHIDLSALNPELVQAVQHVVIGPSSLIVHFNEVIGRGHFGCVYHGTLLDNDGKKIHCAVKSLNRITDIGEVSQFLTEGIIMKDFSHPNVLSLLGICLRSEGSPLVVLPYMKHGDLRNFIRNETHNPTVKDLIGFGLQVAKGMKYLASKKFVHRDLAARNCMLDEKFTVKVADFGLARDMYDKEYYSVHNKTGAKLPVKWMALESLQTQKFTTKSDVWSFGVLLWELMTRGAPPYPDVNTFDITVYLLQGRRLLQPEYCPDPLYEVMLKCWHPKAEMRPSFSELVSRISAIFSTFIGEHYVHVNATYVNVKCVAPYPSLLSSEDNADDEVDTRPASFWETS

Ki [1] [µM] | Structure (SMILES) | Activity [2] [%] | inhibition in vivo at 25 mg/kg/day [3] [%] | Activity [4] [%] | inhibition in vivo at 25 mg/kg/day [5] [%] | inhibition in vivo at 25 mg/kg/day [6] [%] | Activity [7] [%] | IC50 [8] [µM] | IC50 [9] [µM] | IC50 [10] [µM] | Activity [11] | Activity [12] | Activity [13] [%] | Activity [14] [%] | Activity [15] [%] | Activity [16] [%] | IC50 [17] [µM] | Activity [18] | inhibition in vivo at 25 mg/kg/day [19] [%] | Activity [20] [%]
0.335 | O=C1NC(=O)[C@@H](c2cn3c4c(cccc24)CCC3)[C@@H]1c1c[nH]c2ccccc12 [TIVANTINIB] | – | – | – | – | – | – | – | – | – | – | – | – | – | – | – | – | – | – | –
– | C[C@@H](Oc1cc(-c2cnn(C3CCNCC3)c2)cnc1N)c1c(Cl)ccc(F)c1Cl [CRIZOTINIB] | 6.57 | 6 | 2.08 | 48 | 69 | 7.12 | 4.54 | 5.23 | 8.37 | Active | Active | 2.23 | 4.75 | 9.45 | 90.9 | 3.15 | Active | 21 | 76.9
